According to patent publication US20230340364A1, “Fabric Softening Compositions” (Colgate-Palmolive Company, priority 2020, published 2023):

Assay: Dispersibility of the preservative into the finished product
Format: physicochemical
Conditions: preservative post-added (IPBC 0.2%, DGH 0.1%)
Procedure: For 90 kg batch, initial 20% of water is heated to 47.7° C., the agitation is set to 32.5 Hz, then color (1 min of agitation), lactic acid (1 min of agitation), etidronic acid (1 min of agitation) and PQ7 (3 min of agitation) is added. Afterward, the pre-heated esterquat at 60-65° C. is added for 10 seconds and mixture for 5 min. After esterquat addition, the 75% of the remaining water (15° C.) is added and mixed for 5 min more. The final composition is completed with the addition of the rest of the components keeping the agitation at 35 Hz; thickener (10 min of agitation), blend of slurry fragrance capsules (water/capsules; 10:1) (5 min of agitation) and oil perfume (10 min of agitation). For the reference sample, 5% of additional water is post-added to the mixture (5 min of agitation). In the case of the control sample, 0.02% of DPIII is post added with the remaining water to cover the % of hole (5 min of agitation). For the alternative test compositions with IPBC, IPBC is post-added at 0.2% as is. […]
The negative control, positive control, Test composition 1, and Test composition 2, described in Table 1 of Example 1 are first evaluated for their dispersibility into the product and their impact on the viscosity, pH and stability (predictive methods). […] No significant difference in viscosity, pH and stability are identified for all the evaluated samples.

SMILES | dispersibility by being directly post-added into the finished product
CCCCNC(=O)OCC#CI [IPBC, 3-iodo-2-propynyl butylcarbamate] | acceptable dispersibility
CCCCCCCCCCCCNC(=N)N.Cl [DGH, Dodecylguanidinee Hydrochloride] | acceptable dispersibility
